This is an account of results in patent US20240317735A1, “HYDROISOQUINOLINE OR HYDRONAPHTHYRIDINE COMPOUNDS FOR THE TREATMENT OF AUTOIMMUNE DISEASE” (Hoffmann-La Roche Inc., priority 2020, published 2024).

The experiment addresses T1, human TLR7 (Homo sapiens, UniProt Q9NYK1).
T1 construct: host or cells: HEK293 (HEK-Blue hTLR7)
T1 sequence (Q9NYK1 27-1049): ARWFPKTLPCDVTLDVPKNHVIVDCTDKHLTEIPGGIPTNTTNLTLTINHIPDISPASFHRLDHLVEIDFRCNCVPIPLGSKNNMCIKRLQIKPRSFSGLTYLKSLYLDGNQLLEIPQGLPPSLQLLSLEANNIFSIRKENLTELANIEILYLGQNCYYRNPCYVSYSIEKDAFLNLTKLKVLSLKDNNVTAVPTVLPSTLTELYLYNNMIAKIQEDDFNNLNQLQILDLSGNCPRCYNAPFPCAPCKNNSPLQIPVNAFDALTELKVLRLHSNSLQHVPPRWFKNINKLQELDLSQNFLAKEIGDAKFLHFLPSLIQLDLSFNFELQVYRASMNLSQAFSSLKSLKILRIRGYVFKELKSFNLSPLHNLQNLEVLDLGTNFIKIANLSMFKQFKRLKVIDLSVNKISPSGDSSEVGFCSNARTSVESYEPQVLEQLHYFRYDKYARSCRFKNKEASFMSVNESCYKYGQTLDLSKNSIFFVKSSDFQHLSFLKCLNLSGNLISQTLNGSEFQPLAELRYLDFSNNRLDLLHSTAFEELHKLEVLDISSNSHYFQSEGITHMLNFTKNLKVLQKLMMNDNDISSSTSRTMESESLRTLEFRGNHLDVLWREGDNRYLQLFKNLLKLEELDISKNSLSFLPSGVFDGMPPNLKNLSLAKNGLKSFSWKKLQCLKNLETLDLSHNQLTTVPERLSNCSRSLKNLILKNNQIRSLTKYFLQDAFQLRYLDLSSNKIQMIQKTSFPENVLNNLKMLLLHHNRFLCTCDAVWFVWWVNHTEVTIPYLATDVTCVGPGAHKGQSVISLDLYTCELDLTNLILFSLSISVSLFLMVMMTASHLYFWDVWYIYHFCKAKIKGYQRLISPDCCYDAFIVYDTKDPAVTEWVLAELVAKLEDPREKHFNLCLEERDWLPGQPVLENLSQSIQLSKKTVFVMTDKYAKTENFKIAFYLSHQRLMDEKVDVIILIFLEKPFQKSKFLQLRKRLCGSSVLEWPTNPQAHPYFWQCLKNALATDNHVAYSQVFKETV
Put plainly: HEK293-Blue-hTLR-7 cells assay (SEAP reporter, R848 stimulation). Type of experiment: cell-based. The following applies: HEK293-Blue-hTLR7 cells, R848, 20 hrs; read-out: HEK/hTLR7 IC50. In a few lines:
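Stable HEK293-Blue-hTLR7 cells (NF-κB/AP-1-driven SEAP reporter) were co-incubated with serially diluted compound (1% DMSO final) and R848 for 20 hrs at 37 °C. Supernatant SEAP was developed with QUANTI-Blue substrate for 2 hrs at 37 °C and absorbance read at 620–655 nm; antagonism seen as reduced reporter signal.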
As for `Cc1cc(N2Cc3ccc(N4CCNCC4)nc3[C@H](C)C2)c2cnn(C)c2n1` [Example 72, (8R)-6-(1,6-dimethylpyrazolo[3,4-b]pyridin-4-yl)-8-methyl-2-piperazin-1-yl-7,8-dihydro-5H-1,6-naphthyridine], the IC50 worked out at 21 nM.
In the case of `C[C@H]1CN(c2ccnc3c2cnn3C)Cc2ccc(N3CCN(c4cc5c(cn4)CCNC5)CC3)cc21` [Example 9, 7-[4-[(4R)-4-methyl-2-(1-methylpyrazolo[3,4-b]pyridin-4-yl)-3,4-dihydro-1H-isoquinolin-6-yl]piperazin-1-yl]-1,2,3,4-tetrahydro-2,6-naphthyridine], the IC50 came out at 7 nM.
Turning to `C[C@H]1CN(c2ccnc3c2cnn3C)Cc2ccc(N3C[C@@H]4CCNCC4C3=O)cc21` (relative stereo) [Example 55, cis-2-[(4R)-4-methyl-2-(1-methylpyrazolo[3,4-b]pyridin-4-yl)-3,4-dihydro-1H-isoquinolin-6-yl]-3a,4,5,6,7,7a-hexahydro-1H-pyrrolo[3,4-c]pyridin-3-one], the IC50 is 7 nM.
For `C[C@H]1CN(c2ccnc3c2cnn3C)Cc2ccc(OC[C@H]3CNCCN3)cc21` [Example 18, (4R)-4-methyl-2-(1-methylpyrazolo[3,4-b]pyridin-4-yl)-6-[[(2R)-piperazin-2-yl]methoxy]-3,4-dihydro-1H-isoquinoline], the IC50 came out at 8 nM.
Turning to `C[C@H]1CN(c2ccnc3c2cnn3C)Cc2ccc(N3CCN(CCN(C)C)CC3)cc21` [Example 38, N,N-dimethyl-2-[4-[(4R)-4-methyl-2-(1-methylpyrazolo[3,4-b]pyridin-4-yl)-3,4-dihydro-1H-isoquinolin-6-yl]piperazin-1-yl]ethanamine], the IC50 is 3 nM.
As to `C[C@H]1CN(c2ccnc3c2cnn3C)Cc2ccc(N3C[C@H]4CCNC[C@H]4C3=O)cc21` (single isomer, unassigned) [Example 56], the IC50 turned out to be 9 nM.
